The source of these data is patent publication US20180161262A1, “Cosmetic Method and Dermatological Topical Agent for Use Therein, Migration Imparting Agent, and Method for Screening Components for Use in Cosmetic Method for Improving Skin State” (ROHTO PHARMACEUTICAL CO., LTD., priority 2015, published 2018).

The subject of assay [1] is human adipose-derived stem cells. The assay can be described thus: Confirmation test for migration imparting effect (96-well Boyden chamber, Calcein-AM fluorescence). It is filed as cell-based. The following applies: 20 hours; for Migration imparting effect, Ratio to blank (%): blank = 100%. As to the method:
A medium of human adipose-derived stem cells (manufactured by Kurabo Industries Ltd.; cultured to the 7th passage in STEMLIFE medium [provided by Lifeline Cell Technology]) was replaced with DMEM/F12 medium (manufactured by Life Technologies Corp.), followed by culture for additional 20 hours.
Meanwhile, a medium in which a sample to be examined for the presence or absence of the migration imparting effect was dissolved at a predetermined concentration was prepared by using 0.1% by volume of fetal bovine serum (nutritional source). Also, DMEM/F12 medium containing 0.1% by volume of fetal bovine serum and not containing the sample (blank) was provided.
Then, the prepared medium was supplied at 200 μL per well to lower wells of a 96-well Boyden chamber (manufactured by Corning Inc., model number: 3384) having a membrane pore size of 8 μm. Also, the human adipose-derived stem cells cultured for 20 hours in the DMEM/F12 medium were inoculated at 30000 cells per well to upper wells of the Boyden chamber and cultured at 37° C. for 20 hours under 5% by volume of CO2.
1.2 μL/mL of Calcein-AM (fluorescent dye, manufactured by Molecular Probes/Thermo Fisher Scientific Inc.) dissolved at 1.66 mg/mL in DMSO (manufactured by Wako Pure Chemical Industries, Ltd.) was added to 10× cell dissociation solution (cell dissolution solution, manufactured by Trevigen Inc.) diluted 10-fold with sterilized water to thereby prepare an index solution for fluorescence emission having the correlation between the number of human adipose-derived stem cells and the strength of fluorescence emission.
The media in the upper and lower wells were taken out of the Boyden chamber and washed with PBS(−) (manufactured by Dojindo Laboratories), and then, the index solution for fluorescence emission was supplied at 100 μL per well to the lower wells and incubated at 37° C. for 1 hour under 5% by volume of CO2 in the dark. Then, the index solution in the lower wells after the incubation was transferred to a 96-well plate (manufactured by Greiner Bio One International GmbH) having black walls and a transparent bottom, and fluorescence intensity (excitation wavelength: 485 nm, detection wavelength: 520 nm) was measured. Each test was conducted in triplicate (n=3).
Specifically, since there is a correlation between the number of human adipose-derived stem cells and the strength of fluorescence emission as mentioned above, the presence or absence of the migration imparting effect was confirmed by determining increase or decrease in the fluorescence intensity of the lower wells by using the fluorescence intensity obtained by the assay of the blank as a reference (100%). As for the determination of the presence or absence of migration, the “migration imparting effect was present” was determined provided that the rate of stem cell migration (rate of increase with respect to the blank) was 5% or more (score + or more) according to the score shown in Table 1 below.
(§1) It is known that the doubling time of the present cells is usually 24 hours or longer, and in the confirmation test for the migration imparting effect, the human adipose-derived stem cells are taken out 20 hours after inoculation and washed, followed by the measurement of the strength of fluorescence emission. Accordingly, in this test, the growth effect of the human adipose-derived stem cells themselves is not included, and only increase in cells by migration is evaluated. On the other hand, in the confirmation test for the growth promoting effect, absorbance 72 hours after inoculation of the human adipose-derived stein cells is measured, and increase in cells by self-growth is simply evaluated.

For assay [2] the test system is unchanged. The assay can be described thus: Confirmation test for growth promoting effect (WST-8 method, Cell Counting Kit-8). The class given is cell-based. The following applies: 72 hours; for Growth promoting effect, Ratio to blank (%): blank = 100%. As to the method: A medium in which a sample to be examined for the presence or absence of the migration imparting effect was dissolved at a predetermined concentration was prepared by using DMEM/F12 medium (manufactured by Life Technologies Corp.) containing 0.1% by volume of fetal bovine serum. Also, DMEM/F12 medium containing 0.1% by volume of fetal bovine serum unsupplemented with the sample (blank) was provided.
Then, human adipose-derived stem cells (manufactured by Kurabo Industries Ltd.; cultured to the 5th passage in STEMLIFE medium [provided by Lifeline Cell Technology]) were inoculated at 3000 cells per well with the prepared medium to a 96-well plate and cultured at 37° C. for 72 hours under 5% by volume of CO2, and then, respiratory activity of the cells was measured as an index for whether or not the cells were activated, by the WST-8 method using Cell Counting Kit-8 (manufactured by Dojindo Laboratories). Specifically, after the human adipose-derived stem cells were cultured for 72 hours, the medium of each well was replaced with DMEM/F12 medium containing Cell Counting Kit-8, which was then incubated at 37° C. for 4 hours under 5% by volume of CO2 in the dark, and then, absorbance at a wavelength of 450 nm (control wavelength: 630 nm) was measured. Each test was conducted in triplicate (n=3).
Specifically, the degree of the respiratory activity (proportional to the number of cells) was measured as the absorbance (wavelength: 450 nm) of the solution by using the WST-8 reagent. Then, the presence or absence of the growth promoting effect was confirmed by determining increase or decrease in the absorbance of the sample-containing prepared medium by using the absorbance obtained by the assay of the blank medium as a reference (100%). As for the determination of the presence or absence of growth promotion, the “stem cell growth promoting effect was present” was determined provided that the rate of stem cell growth (rate of growth with respect to the blank) was 5% or more (score + or more) according to the score shown in Table 2 below.
as §1
A general note: Tetrazolium dyes change colour on reduction, which living cells bring about.

The mark [3] stands for this setting: applied concentration 0.01 mg/mL.
Setting [4] is: applied concentration 0.1 mg/mL.
[5] abbreviates: applied concentration 1.0 mg/mL.
[6] abbreviates: applied concentration 0.001 mg/mL.

For caprooyl tetrapeptide-3, the “Migration imparting effect, Evaluation (score)” value was “+ (105 or more and less than 120)” in assay [1] (setting [3]); “+++ (130 or more and less than 140)” in assay [1] (setting [4]); “+++ (130 or more and less than 140)” in assay [1] (setting [5]). Further, the “Migration imparting effect, Ratio to blank (%)” value in assay [1] (setting [3]) was 109%; in assay [1] (setting [4]), 133%; in assay [1] (setting [5]), 132%. Also, the “Growth promoting effect, Evaluation (score)” value in assay [2] (setting [3]) was “++ (120 or more and less than 130)”; in assay [2] (setting [4]) it was “++ (120 or more and less than 130)”; in assay [2] (setting [5]), “+ (105 or more and less than 120)”. Further, the “Growth promoting effect, Ratio to blank (%)” value in assay [2] (setting [3]) was found to be 120%; in assay [2] (setting [4]), 123%; in assay [2] (setting [5]), 117%.
In the case of copper tripeptide-1, the “Migration imparting effect, Evaluation (score)” value in assay [1] (setting [6]) is “+++ (130 or more and less than 140)”; in assay [1] (setting [3]), “++ (120 or more and less than 130)”; in assay [1] (setting [4]), “+++ (130 or more and less than 140)”. In addition, the figures for the “Migration imparting effect, Ratio to blank (%)” value in assay [1] (setting [6]), in assay [1] (setting [3]) and in assay [1] (setting [4]) were 130%, 125% and 131%, respectively. Also, the “Growth promoting effect, Evaluation (score)” value in assay [2] (setting [3]) was “+++ (130 or more and less than 140)”; in assay [2] (setting [4]), “++++ (140 or more)”. Moreover, the entries for the “Growth promoting effect, Ratio to blank (%)” value in assay [2] (setting [3]) and in assay [2] (setting [4]) were 130% and 160%, respectively.
